“Also recorded” adds a separate entry of the source.
Test: Cold solubility / 4 C storage of commercial fatty acids and their mixtures
Format: physicochemical
Conditions: 1 day, no solvent or surfactant

Structure (SMILES): CCCCCCCCCCCC(=O)O [C12, dodecanoic]
- 4 C. Storage, physical state: solid or formed crystals; also recorded: Solid

From US20140170237A1, “ANTIMICROBIAL COMPOSITIONS CONTAINING MIXTURES OF FATTY AND HYDROXYL CARBOXYLIC ACIDS” (priority 2012, published 2014)
